This is an account of results in patent US9708314B2, “Heterocyclic amide compound” (NISSAN CHEMICAL INDUSTRIES, LTD., priority 2013, dated 2017).

Type in all cases: in vivo
Test [1] deals with Echinochloa oryzacola Vasing. Kind of test: Test Example 2: herbicidal activity, application during weed generation in submerged conditions. Conditions: Eighteenth Table; application herbicide amount 320 g/ha. In outline: (§1)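 Mixed sowings in flooded alluvial soil (4 cm water), greenhouse 25-30 °C; emulsifiable concentrate diluted in water applied to the water surface at the 1-2 leaf stage, rate in g/ha. Effect scored three weeks later on a 0-5 scale (5 = ≥90% herbicidal ratio, 0 = ≤5%).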

For the next test, the system named is Monochoria vaginalis. The test is described as above. Conditions: Eighteenth Table; application herbicide amount 320 g/ha. In outline:
as §1

The next test concerns Scirpus juncoides. The description is as above. The following applies: Eighteenth Table; application herbicide amount 320 g/ha. Summed up: as §1
Another test concerns Abutilon theophrasti. Kind of test: Test Example 4: herbicidal effect by application to foliage (diluvial soil, plastic box). The following applies: 320 g/ha; for herbicidal effect, M (Abutilon theophrasti): application to foliage. In outline:
(§2)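 Plants were grown in sterilized diluvial soil in a greenhouse at 25-30° C for 14 days, then sprayed on stems and leaves with water-diluted emulsion formulation at set rates in g/ha. Weed control and crop injury were scored 3 weeks after treatment on a 0-5 herbicidal-ratio scale, from 0 (≤5%) to 5 (≥90%).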

The subject of a further test is Alopecurus myosuroides. The test is described as above. Conditions: 320 g/ha; for herbicidal effect, J (Alopecurus myosuroides): application to foliage. Summed up: as §2
For the next test, the system named is Amaranthus retroflexus. Described as above. Conditions: 320 g/ha; for herbicidal effect, N (Amaranthus retroflexus): application to foliage. Summed up: as §2
The subject of the next test is Apera spica-venti. The test is described as above. Conditions: 320 g/ha; for herbicidal effect, L (Apera spica-venti.): application to foliage. Summed up:
as §2

A further test deals with Avena fatua. The test is described as above. The following applies: 320 g/ha; for herbicidal effect, I (Avena fatua): application to foliage. Summed up: as §2
In the next test the test system is Chenopodium album. Described as above. Conditions: 320 g/ha; for herbicidal effect, O (Chenopodium album): application to foliage. In outline:
as §2

The next test deals with Digitaria ciliaris. Described as above. The following applies: 320 g/ha; for herbicidal effect, F (Digitaria ciliaris): application to foliage. Summed up:
as §2

The subject of test [2] is Echinochloa crus-galli var. crus-galli. The test is described as above. The following applies: 320 g/ha; for herbicidal effect, H (Echinochloa crus-galli var. crus-galli): application to foliage. Summed up: as §2
For a further test, the system named is Lolium multiflorum Lam. Described as above. Conditions: 320 g/ha; for herbicidal effect, K (Lolium multiflorum Lam.): application to foliage. Summed up: as §2
The next test concerns Setaria viridis. The description is as above. Conditions: 320 g/ha; for herbicidal effect, G (Setaria viridis): application to foliage. In outline: as §2
In a further test the test system is Stellaria media. The test is described as above. The following applies: 320 g/ha; for herbicidal effect, P (Stellaria media): application to foliage. In outline:
as §2

The test system of another test is Veronica persica. Described as above. The following applies: 320 g/ha; for herbicidal effect, R (Veronica persica): application to foliage. In outline:
as §2

Turning to `COc1ccccc1-c1nnc2c(C(=O)Nc3nnnn3C)ccc(C(F)(F)F)n12` [2-045], the “A (Echinochloa oryzicola Vasing.) herbicidal ratio grade” value in [1] is given as 5 (Herbicidal ratio of 90% or more (almost completely withered)). In addition, the “C (Monochoria vaginalis) herbicidal ratio grade” value in the test with Monochoria vaginalis is 4 (Herbicidal ratio of 70% or more and less than 90%). For the same compound, the “B (Scirpus juncoides) herbicidal ratio grade” value with Scirpus juncoides is 3 (Herbicidal ratio of 40% or more and less than 70%). In addition, the “M (Abutilon theophrasti) herbicidal effect grade” value in the test with Abutilon theophrasti (foliage application) is 5 (Herbicidal ratio of 90% or more (almost completely withered)). Besides, in the test with Alopecurus myosuroides (foliage application), the “J (Alopecurus myosuroides) herbicidal effect grade” value was 1 (Herbicidal ratio of 5% or more and less than 20%). Further, in the test with Amaranthus retroflexus (foliage application), the “N (Amaranthus retroflexus) herbicidal effect grade” value was 5 (Herbicidal ratio of 90% or more (almost completely withered)). In the test on Apera spica-venti. (foliage application), the “L (Apera spica-venti.) herbicidal effect grade” value was 3 (Herbicidal ratio of 40% or more and less than 70%). Moreover, the “I (Avena fatua) herbicidal effect grade” value with Avena fatua (foliage application) is 2 (Herbicidal ratio of 20% or more and less than 40%). For the same compound, the “O (Chenopodium album) herbicidal effect grade” value with Chenopodium album (foliage application) is given as 5 (Herbicidal ratio of 90% or more (almost completely withered)). For the same compound, in the test on Digitaria ciliaris (foliage application), the “F (Digitaria ciliaris) herbicidal effect grade” value is reported as 5 (Herbicidal ratio of 90% or more (almost completely withered)). Also, in [2] (foliage application), the “H (Echinochloa crus-galli var. crus-galli) herbicidal effect grade” value is listed as 5 (Herbicidal ratio of 90% or more (almost completely withered)). Also, the “K (Lolium multiflorum Lam.) herbicidal effect grade” value with Lolium multiflorum Lam. (foliage application) is 1 (Herbicidal ratio of 5% or more and less than 20%). For the same compound, the “G (Setaria viridis) herbicidal effect grade” value in the test on Setaria viridis (foliage application) is 4 (Herbicidal ratio of 70% or more and less than 90%). Also, the “P (Stellaria media) herbicidal effect grade” value with Stellaria media (foliage application) is listed as 5 (Herbicidal ratio of 90% or more (almost completely withered)). In addition, the “R (Veronica persica) herbicidal effect grade” value in the test with Veronica persica (foliage application) is on record as 5 (Herbicidal ratio of 90% or more (almost completely withered)).

Consider `Cn1nnnc1NC(=O)c1ccc(C(F)(F)F)n2c(SCc3ccccc3)nnc12` [2-076], for which the “A (Echinochloa oryzicola Vasing.) herbicidal ratio grade” value in test [1] is 2 (Herbicidal ratio of 20% or more and less than 40%). Besides, the “C (Monochoria vaginalis) herbicidal ratio grade” value in the test with Monochoria vaginalis is 2 (Herbicidal ratio of 20% or more and less than 40%). For the same compound, the “B (Scirpus juncoides) herbicidal ratio grade” value with Scirpus juncoides is 3 (Herbicidal ratio of 40% or more and less than 70%). Further, the “herbicidal effect, M (Abutilon theophrasti)” value (shortened to “herbicidal effect, M”) in the test with Abutilon theophrasti was 4 (Herbicidal ratio of 70% or more and less than 90%). For the same compound, in the test with Alopecurus myosuroides, the “herbicidal effect, J (Alopecurus myosuroides)” value (“herbicidal effect, J” below) was 1 (Herbicidal ratio of 5% or more and less than 20%). The “herbicidal effect, N (Amaranthus retroflexus)” value (“herbicidal effect, N” below) in the test on Amaranthus retroflexus is listed as 5 (Herbicidal ratio of 90% or more (almost completely withered)). The “herbicidal effect, L (Apera spica-venti.)” value (“herbicidal effect, L” below) in the test on Apera spica-venti. is 2 (Herbicidal ratio of 20% or more and less than 40%). The “herbicidal effect, I (Avena fatua)” value in the test with Avena fatua is 1 (Herbicidal ratio of 5% or more and less than 20%). Also, in the test on Chenopodium album, the “herbicidal effect, O (Chenopodium album)” value was 5 (Herbicidal ratio of 90% or more (almost completely withered)). In the test on Digitaria ciliaris, the “herbicidal effect, F (Digitaria ciliaris)” value (“herbicidal effect, F” below) is 3 (Herbicidal ratio of 40% or more and less than 70%). Besides, the “herbicidal effect, H (Echinochloa crus-galli var. crus-galli)” value (“herbicidal effect, H” below) in test [2] was 5 (Herbicidal ratio of 90% or more (almost completely withered)). In the test on Lolium multiflorum Lam., the “herbicidal effect, K (Lolium multiflorum Lam.)” value (“herbicidal effect, K” below) was 1 (Herbicidal ratio of 5% or more and less than 20%). Further, the “herbicidal effect, G (Setaria viridis)” value in the test on Setaria viridis is 3 (Herbicidal ratio of 40% or more and less than 70%). Also, the “herbicidal effect, P (Stellaria media)” value with Stellaria media is 5 (Herbicidal ratio of 90% or more (almost completely withered)). In the test with Veronica persica, the “herbicidal effect, R (Veronica persica)” value is 5 (Herbicidal ratio of 90% or more (almost completely withered)).

With `Cn1nnnc1NC(=O)c1ccc(C(F)(F)F)n2c(N3CCSCC3)nnc12` [2-078], the “A (Echinochloa oryzicola Vasing.) herbicidal ratio grade” value in test [1] was 4 (Herbicidal ratio of 70% or more and less than 90%). Moreover, in the test with Monochoria vaginalis, the “C (Monochoria vaginalis) herbicidal ratio grade” value is 3 (Herbicidal ratio of 40% or more and less than 70%). In addition, the “B (Scirpus juncoides) herbicidal ratio grade” value with Scirpus juncoides was 4 (Herbicidal ratio of 70% or more and less than 90%). Besides, the “herbicidal effect, M” value in the test on Abutilon theophrasti is given as 5 (Herbicidal ratio of 90% or more (almost completely withered)). Besides, the “herbicidal effect, J” value with Alopecurus myosuroides was 4 (Herbicidal ratio of 70% or more and less than 90%). Moreover, the “herbicidal effect, N” value in the test with Amaranthus retroflexus is 5 (Herbicidal ratio of 90% or more (almost completely withered)). Further, the “herbicidal effect, L” value in the test with Apera spica-venti. was 5 (Herbicidal ratio of 90% or more (almost completely withered)). Moreover, the “herbicidal effect, I (Avena fatua)” value in the test on Avena fatua is 3 (Herbicidal ratio of 40% or more and less than 70%). In the test with Chenopodium album, the “herbicidal effect, O (Chenopodium album)” value was 5 (Herbicidal ratio of 90% or more (almost completely withered)). The “herbicidal effect, F” value in the test on Digitaria ciliaris is 5 (Herbicidal ratio of 90% or more (almost completely withered)). Further, the “herbicidal effect, H” value in [2] was 5 (Herbicidal ratio of 90% or more (almost completely withered)). Also, the “herbicidal effect, K” value in the test on Lolium multiflorum Lam. was 4 (Herbicidal ratio of 70% or more and less than 90%). Moreover, in the test with Setaria viridis, the “herbicidal effect, G (Setaria viridis)” value is 5 (Herbicidal ratio of 90% or more (almost completely withered)). Moreover, the “herbicidal effect, P (Stellaria media)” value in the test on Stellaria media is listed as 5 (Herbicidal ratio of 90% or more (almost completely withered)). In addition, the “herbicidal effect, R (Veronica persica)” value in the test with Veronica persica is 5 (Herbicidal ratio of 90% or more (almost completely withered)).

Consider `Cn1nnnc1NC(=O)c1ccc(C(F)(F)F)n2c(NCC(F)(F)F)nnc12` [2-081], for which the “A (Echinochloa oryzicola Vasing.) herbicidal ratio grade” value in test [1] is 2 (Herbicidal ratio of 20% or more and less than 40%). Further, in the test with Monochoria vaginalis, the “C (Monochoria vaginalis) herbicidal ratio grade” value is 2 (Herbicidal ratio of 20% or more and less than 40%). In the test with Scirpus juncoides, the “B (Scirpus juncoides) herbicidal ratio grade” value is 2 (Herbicidal ratio of 20% or more and less than 40%). For the same compound, the “herbicidal effect, M” value with Abutilon theophrasti was 4 (Herbicidal ratio of 70% or more and less than 90%). Besides, in the test on Alopecurus myosuroides, the “herbicidal effect, J” value was 1 (Herbicidal ratio of 5% or more and less than 20%). The “herbicidal effect, N” value in the test on Amaranthus retroflexus is 5 (Herbicidal ratio of 90% or more (almost completely withered)). Besides, the “herbicidal effect, L” value in the test with Apera spica-venti. is 1 (Herbicidal ratio of 5% or more and less than 20%). For the same compound, the “herbicidal effect, I (Avena fatua)” value with Avena fatua is 3 (Herbicidal ratio of 40% or more and less than 70%). Further, the “herbicidal effect, O (Chenopodium album)” value in the test on Chenopodium album was 5 (Herbicidal ratio of 90% or more (almost completely withered)). For the same compound, the “herbicidal effect, F” value in the test with Digitaria ciliaris was 4 (Herbicidal ratio of 70% or more and less than 90%). For the same compound, the “herbicidal effect, H” value in [2] was 5 (Herbicidal ratio of 90% or more (almost completely withered)). Also, the “herbicidal effect, K” value in the test on Lolium multiflorum Lam. was 1 (Herbicidal ratio of 5% or more and less than 20%). Moreover, the “herbicidal effect, G (Setaria viridis)” value in the test with Setaria viridis is 3 (Herbicidal ratio of 40% or more and less than 70%). The “herbicidal effect, P (Stellaria media)” value in the test on Stellaria media was 5 (Herbicidal ratio of 90% or more (almost completely withered)). The “herbicidal effect, R (Veronica persica)” value in the test with Veronica persica was 4 (Herbicidal ratio of 70% or more and less than 90%).

Consider `CCN(CC)c1nnc2c(C(=O)Nc3nnnn3C)ccc(C(F)(F)F)n12` [2-089], for which the “A (Echinochloa oryzicola Vasing.) herbicidal ratio grade” value in test [1] was 4 (Herbicidal ratio of 70% or more and less than 90%). Besides, the “C (Monochoria vaginalis) herbicidal ratio grade” value in the test with Monochoria vaginalis was 5 (Herbicidal ratio of 90% or more (almost completely withered)). For the same compound, in the test with Scirpus juncoides, the “B (Scirpus juncoides) herbicidal ratio grade” value is 4 (Herbicidal ratio of 70% or more and less than 90%). Also, in the test on Abutilon theophrasti, the “herbicidal effect, M” value is 4 (Herbicidal ratio of 70% or more and less than 90%). In addition, the “herbicidal effect, J” value with Alopecurus myosuroides is 2 (Herbicidal ratio of 20% or more and less than 40%). In addition, the “herbicidal effect, N” value in the test with Amaranthus retroflexus is 4 (Herbicidal ratio of 70% or more and less than 90%). Also, in the test with Apera spica-venti., the “herbicidal effect, L” value is 4 (Herbicidal ratio of 70% or more and less than 90%). Also, the “herbicidal effect, I (Avena fatua)” value in the test on Avena fatua was 1 (Herbicidal ratio of 5% or more and less than 20%). Besides, the “herbicidal effect, O (Chenopodium album)” value in the test with Chenopodium album is 5 (Herbicidal ratio of 90% or more (almost completely withered)). Further, in the test with Digitaria ciliaris, the “herbicidal effect, F” value is 4 (Herbicidal ratio of 70% or more and less than 90%). The “herbicidal effect, H” value in [2] was 4 (Herbicidal ratio of 70% or more and less than 90%). Further, the “herbicidal effect, K” value in the test on Lolium multiflorum Lam. is 1 (Herbicidal ratio of 5% or more and less than 20%). Also, the “herbicidal effect, G (Setaria viridis)” value in the test on Setaria viridis was 4 (Herbicidal ratio of 70% or more and less than 90%). In addition, the “herbicidal effect, P (Stellaria media)” value with Stellaria media was 5 (Herbicidal ratio of 90% or more (almost completely withered)). In the test on Veronica persica, the “herbicidal effect, R (Veronica persica)” value is given as 5 (Herbicidal ratio of 90% or more (almost completely withered)).
